Legend:
Experiment in all cases: KINOMEscan competition binding
[1] = tested on: FLT3 (human), P36888 [R834Q]; details: compound 1.0 µM
[2] = target: SRPK2 (human) (UniProt P78362); details: compound 1.0 µM
[3] = target: EPHA2 (human) (UniProt P29317); details: compound 1.0 µM
[4] = target: STK10 (human) (UniProt O94804); details: compound 1.0 µM
[5] = target: RPS6KA2 KD1 (human) (UniProt Q15349); details: compound 1.0 µM
[6] = target: CRK2 (P.falciparum) (UniProt P61075); details: compound 1.0 µM
[7] = target: RIOK1 (human) (UniProt Q9BRS2); details: compound 1.0 µM
[8] = target: SGK110 (human) (UniProt P0C264); details: compound 1.0 µM
[9] = target: ULK1 (human) (UniProt O75385); details: compound 1.0 µM
[10] = target: FLT1 (human) (UniProt P17948); details: compound 1.0 µM
[11] = target: NEK7 (human) (UniProt Q8TDX7); details: compound 1.0 µM
[12] = tested on: EGFR (human), P00533 [T790M/L858R]; details: compound 1.0 µM
[13] = tested on: PIK3CA (human), P42336 [E545A]; details: compound 1.0 µM
[14] = target: CDKL5 (human) (UniProt O76039); details: for kinase still bound, per cent of control: compound 1.0 µM
[15] = tested on: RET (human), P07949 [M918T]; details: compound 1.0 µM
[16] = target: MAP3K9 (human) (UniProt P80192); details: compound 1.0 µM
[17] = target: MAP4K5 (human) (UniProt Q9Y4K4); details: compound 1.0 µM
[18] = target: PIK3CA (human) (UniProt P42336); details: compound 1.0 µM
[19] = target: CSNK1A1L (human) (UniProt Q8N752); details: compound 1.0 µM
[20] = target: CDK5 (human) (UniProt Q00535); details: compound 1.0 µM
[21] = target: CDC42BPB (human) (UniProt Q9Y5S2); details: compound 1.0 µM
[22] = target: TLK1 (human) (UniProt Q9UKI8); details: compound 1.0 µM
[23] = target: ACVR2B (human) (UniProt Q13705); details: compound 1.0 µM
[24] = tested on: FLT3 (human), P36888 [D835H]; details: compound 1.0 µM
[25] = target: TAOK1 (human) (UniProt Q7L7X3); details: compound 1.0 µM
[26] = target: MINK1 (human) (UniProt Q8N4C8); details: compound 1.0 µM
[27] = target: PRKX (human) (UniProt P51817); details: compound 1.0 µM
[28] = tested on: CPK1 (P.falciparum); details: compound 1.0 µM
[29] = tested on: KIT (human), P10721 [L576P]; details: compound 1.0 µM
[30] = tested on: MET (human), P08581 [M1250T]; details: compound 1.0 µM
[31] = target: SRPK3 (human) (UniProt Q9UPE1); details: compound 1.0 µM
[32] = target: PAK1 (human) (UniProt Q13153); details: compound 1.0 µM
[33] = target: PRKCQ (human) (UniProt Q04759); details: compound 1.0 µM
[34] = target: CDK3 (human) (UniProt Q00526); details: compound 1.0 µM
[35] = target: DDR1 (human) (UniProt Q08345); details: compound 1.0 µM
[36] = target: ERBB2 (human) (UniProt P04626); details: compound 1.0 µM
[37] = target: CAMK1D (human) (UniProt Q8IU85); details: compound 1.0 µM
[38] = target: BRSK1 (human) (UniProt Q8TDC3); details: compound 1.0 µM
[39] = target: EPHA4 (human) (UniProt P54764); details: compound 1.0 µM
[40] = target: CDC2L2 (human) (UniProt Q9UQ88); details: compound 1.0 µM
[41] = tested on: KIT (human), P10721 [V559D]; details: compound 1.0 µM
[42] = target: MAP4K4 (human) (UniProt O95819); details: compound 1.0 µM
[43] = target: GRK7 (human) (UniProt Q8WTQ7); details: compound 1.0 µM

Chain of CDKL5 (human) (O76039 whole entry, looked up): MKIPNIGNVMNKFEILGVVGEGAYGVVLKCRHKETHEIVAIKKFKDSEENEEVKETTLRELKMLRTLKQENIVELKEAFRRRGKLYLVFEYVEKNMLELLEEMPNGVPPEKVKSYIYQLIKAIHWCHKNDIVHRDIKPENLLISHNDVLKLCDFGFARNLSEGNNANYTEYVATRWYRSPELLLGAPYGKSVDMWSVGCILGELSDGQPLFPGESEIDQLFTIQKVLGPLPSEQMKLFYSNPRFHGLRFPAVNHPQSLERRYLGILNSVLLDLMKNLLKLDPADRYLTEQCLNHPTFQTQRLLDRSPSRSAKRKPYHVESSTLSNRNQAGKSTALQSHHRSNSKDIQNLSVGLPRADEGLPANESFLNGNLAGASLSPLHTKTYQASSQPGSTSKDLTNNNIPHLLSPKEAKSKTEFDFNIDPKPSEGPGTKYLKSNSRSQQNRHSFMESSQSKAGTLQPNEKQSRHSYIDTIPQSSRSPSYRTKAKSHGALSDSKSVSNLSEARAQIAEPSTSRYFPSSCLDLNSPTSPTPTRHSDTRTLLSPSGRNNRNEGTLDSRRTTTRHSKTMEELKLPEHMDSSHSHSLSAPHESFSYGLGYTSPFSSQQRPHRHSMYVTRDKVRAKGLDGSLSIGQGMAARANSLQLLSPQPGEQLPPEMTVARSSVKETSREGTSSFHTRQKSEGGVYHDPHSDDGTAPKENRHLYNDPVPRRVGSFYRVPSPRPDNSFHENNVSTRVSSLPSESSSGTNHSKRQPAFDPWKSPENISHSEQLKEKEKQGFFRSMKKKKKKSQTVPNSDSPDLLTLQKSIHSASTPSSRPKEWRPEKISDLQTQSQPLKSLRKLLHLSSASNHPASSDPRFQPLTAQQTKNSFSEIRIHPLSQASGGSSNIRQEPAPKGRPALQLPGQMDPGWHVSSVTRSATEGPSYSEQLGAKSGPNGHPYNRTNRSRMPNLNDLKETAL
Chain of CRK2 (P.falciparum) (P61075 whole entry, looked up): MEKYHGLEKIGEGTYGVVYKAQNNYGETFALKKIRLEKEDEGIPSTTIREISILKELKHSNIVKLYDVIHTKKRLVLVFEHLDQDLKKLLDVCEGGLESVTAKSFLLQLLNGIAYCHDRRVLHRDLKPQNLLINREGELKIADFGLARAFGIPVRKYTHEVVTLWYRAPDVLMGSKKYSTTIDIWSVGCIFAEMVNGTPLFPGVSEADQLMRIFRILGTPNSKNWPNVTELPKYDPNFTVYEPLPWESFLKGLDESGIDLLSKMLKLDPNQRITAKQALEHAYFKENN
Chain of CDC2L2 (human) (Q9UQ88 whole entry, looked up): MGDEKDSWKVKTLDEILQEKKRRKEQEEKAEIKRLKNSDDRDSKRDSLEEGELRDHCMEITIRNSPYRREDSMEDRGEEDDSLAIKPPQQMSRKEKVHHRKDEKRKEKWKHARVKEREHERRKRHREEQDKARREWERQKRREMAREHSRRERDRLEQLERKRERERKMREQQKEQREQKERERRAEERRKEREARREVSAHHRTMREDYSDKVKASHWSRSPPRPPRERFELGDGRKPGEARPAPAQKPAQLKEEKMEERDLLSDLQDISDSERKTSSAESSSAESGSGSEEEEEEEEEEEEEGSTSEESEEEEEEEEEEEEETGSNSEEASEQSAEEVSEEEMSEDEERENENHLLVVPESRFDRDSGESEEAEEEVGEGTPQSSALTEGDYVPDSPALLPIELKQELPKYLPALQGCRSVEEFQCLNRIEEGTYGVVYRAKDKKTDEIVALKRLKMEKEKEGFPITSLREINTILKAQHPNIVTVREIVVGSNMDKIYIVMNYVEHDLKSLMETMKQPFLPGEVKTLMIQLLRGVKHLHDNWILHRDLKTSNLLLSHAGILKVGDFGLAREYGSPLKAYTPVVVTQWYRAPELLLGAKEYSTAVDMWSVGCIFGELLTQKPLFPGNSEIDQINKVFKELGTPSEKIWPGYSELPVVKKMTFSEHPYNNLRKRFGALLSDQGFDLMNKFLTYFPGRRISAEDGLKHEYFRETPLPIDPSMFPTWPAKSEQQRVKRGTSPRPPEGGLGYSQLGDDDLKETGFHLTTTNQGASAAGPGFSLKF
Chain of KIT (human), P10721 [L576P] (P10721 whole entry L576P, looked up): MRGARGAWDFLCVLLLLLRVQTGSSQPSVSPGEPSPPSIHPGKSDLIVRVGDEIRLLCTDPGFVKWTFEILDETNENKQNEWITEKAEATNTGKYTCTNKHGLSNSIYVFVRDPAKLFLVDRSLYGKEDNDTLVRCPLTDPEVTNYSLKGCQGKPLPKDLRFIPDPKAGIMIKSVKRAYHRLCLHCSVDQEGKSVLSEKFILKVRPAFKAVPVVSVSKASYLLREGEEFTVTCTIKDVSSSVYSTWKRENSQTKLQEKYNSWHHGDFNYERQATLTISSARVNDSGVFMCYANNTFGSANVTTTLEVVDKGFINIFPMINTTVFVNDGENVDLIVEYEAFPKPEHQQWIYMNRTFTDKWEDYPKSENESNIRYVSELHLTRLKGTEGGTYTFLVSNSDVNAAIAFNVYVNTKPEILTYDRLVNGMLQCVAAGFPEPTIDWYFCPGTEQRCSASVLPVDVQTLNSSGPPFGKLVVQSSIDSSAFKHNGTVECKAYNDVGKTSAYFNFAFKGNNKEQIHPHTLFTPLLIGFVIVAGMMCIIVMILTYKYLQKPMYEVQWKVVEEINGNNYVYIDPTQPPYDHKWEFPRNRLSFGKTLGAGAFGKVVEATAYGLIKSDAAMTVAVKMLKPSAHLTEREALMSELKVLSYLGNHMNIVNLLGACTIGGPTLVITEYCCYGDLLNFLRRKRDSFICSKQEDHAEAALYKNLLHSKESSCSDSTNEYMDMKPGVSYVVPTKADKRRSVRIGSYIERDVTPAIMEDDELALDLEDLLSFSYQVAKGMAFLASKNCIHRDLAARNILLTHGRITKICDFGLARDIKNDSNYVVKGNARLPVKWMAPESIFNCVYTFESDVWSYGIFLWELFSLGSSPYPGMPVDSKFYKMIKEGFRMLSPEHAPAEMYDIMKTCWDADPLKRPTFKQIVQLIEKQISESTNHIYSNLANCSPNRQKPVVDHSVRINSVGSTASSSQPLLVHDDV
Chain of CDC42BPB (human) (Q9Y5S2 whole entry, looked up): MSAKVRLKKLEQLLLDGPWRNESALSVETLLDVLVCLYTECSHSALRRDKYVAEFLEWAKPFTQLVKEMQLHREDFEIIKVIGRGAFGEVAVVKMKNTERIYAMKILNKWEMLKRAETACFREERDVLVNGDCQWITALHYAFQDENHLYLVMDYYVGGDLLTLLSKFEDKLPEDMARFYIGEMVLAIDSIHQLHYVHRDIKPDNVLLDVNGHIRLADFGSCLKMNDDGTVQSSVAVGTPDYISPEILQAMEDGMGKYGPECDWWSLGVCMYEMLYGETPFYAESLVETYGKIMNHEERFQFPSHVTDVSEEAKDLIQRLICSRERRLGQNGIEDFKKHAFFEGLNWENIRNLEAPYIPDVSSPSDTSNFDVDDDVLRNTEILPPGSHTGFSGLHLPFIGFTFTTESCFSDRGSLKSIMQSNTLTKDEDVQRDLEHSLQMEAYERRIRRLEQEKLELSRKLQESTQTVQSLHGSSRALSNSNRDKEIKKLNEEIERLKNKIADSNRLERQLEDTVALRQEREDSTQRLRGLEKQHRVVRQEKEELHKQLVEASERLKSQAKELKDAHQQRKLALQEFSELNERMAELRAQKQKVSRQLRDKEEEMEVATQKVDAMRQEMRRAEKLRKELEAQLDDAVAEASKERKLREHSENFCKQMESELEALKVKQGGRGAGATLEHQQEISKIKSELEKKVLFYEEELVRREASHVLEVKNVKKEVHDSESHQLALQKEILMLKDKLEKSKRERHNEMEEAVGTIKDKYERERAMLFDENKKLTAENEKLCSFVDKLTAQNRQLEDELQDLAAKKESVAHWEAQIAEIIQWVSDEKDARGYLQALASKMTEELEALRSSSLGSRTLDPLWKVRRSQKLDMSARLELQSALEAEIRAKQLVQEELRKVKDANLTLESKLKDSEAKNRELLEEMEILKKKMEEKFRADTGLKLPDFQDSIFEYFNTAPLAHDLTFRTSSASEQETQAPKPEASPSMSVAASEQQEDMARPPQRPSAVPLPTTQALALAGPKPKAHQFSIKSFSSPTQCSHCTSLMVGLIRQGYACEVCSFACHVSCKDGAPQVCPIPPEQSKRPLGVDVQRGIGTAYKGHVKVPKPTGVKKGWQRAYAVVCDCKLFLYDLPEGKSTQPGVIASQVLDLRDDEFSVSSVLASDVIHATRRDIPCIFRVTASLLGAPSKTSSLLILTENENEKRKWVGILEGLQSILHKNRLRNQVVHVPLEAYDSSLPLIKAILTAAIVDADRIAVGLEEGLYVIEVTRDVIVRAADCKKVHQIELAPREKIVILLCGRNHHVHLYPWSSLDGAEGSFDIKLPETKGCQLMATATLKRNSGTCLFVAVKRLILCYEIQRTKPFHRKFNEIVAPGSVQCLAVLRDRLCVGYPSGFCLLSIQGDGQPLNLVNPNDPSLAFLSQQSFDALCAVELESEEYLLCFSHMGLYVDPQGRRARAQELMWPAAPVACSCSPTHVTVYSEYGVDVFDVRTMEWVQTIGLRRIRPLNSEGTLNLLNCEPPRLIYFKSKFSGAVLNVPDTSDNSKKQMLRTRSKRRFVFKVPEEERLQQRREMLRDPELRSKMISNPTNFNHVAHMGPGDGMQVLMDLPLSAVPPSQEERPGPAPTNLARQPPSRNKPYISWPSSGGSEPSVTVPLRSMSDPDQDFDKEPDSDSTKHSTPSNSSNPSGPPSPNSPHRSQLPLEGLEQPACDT
Chain of CAMK1D (human) (Q8IU85 whole entry, looked up): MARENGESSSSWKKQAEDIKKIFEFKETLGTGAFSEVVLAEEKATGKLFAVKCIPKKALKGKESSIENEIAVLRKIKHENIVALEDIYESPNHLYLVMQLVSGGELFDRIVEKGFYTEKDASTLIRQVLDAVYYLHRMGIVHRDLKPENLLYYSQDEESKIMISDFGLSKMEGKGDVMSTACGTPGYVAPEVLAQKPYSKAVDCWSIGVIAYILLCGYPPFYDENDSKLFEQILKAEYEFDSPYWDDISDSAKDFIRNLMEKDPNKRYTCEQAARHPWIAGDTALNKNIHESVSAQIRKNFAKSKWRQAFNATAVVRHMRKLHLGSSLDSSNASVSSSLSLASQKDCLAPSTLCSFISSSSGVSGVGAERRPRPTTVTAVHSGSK

Cc1cc(NC(=O)c2cccc(NC(=O)/C=C/CN(C)C)c2)ccc1Nc1nccc(-c2cccnc2)n1
kinase still bound, per cent of control [1]: 100% | kinase still bound, per cent of control [2]: 100% | kinase still bound, per cent of control [3]: 100% | kinase still bound, per cent of control [4]: 100% | kinase still bound, per cent of control [5]: 100% | kinase still bound, per cent of control [6]: 90% | kinase still bound, per cent of control [7]: 100% | kinase still bound, per cent of control [8]: 95% | kinase still bound, per cent of control [9]: 100% | kinase still bound, per cent of control [10]: 100% | kinase still bound, per cent of control [11]: 100% | kinase still bound, per cent of control [12]: 81% | kinase still bound, per cent of control [13]: 95% | kinase still bound, per cent of control [14]: 100% | kinase still bound, per cent of control [15]: 90% | kinase still bound, per cent of control [16]: 100% | kinase still bound, per cent of control [17]: 100% | kinase still bound, per cent of control [18]: 100% | kinase still bound, per cent of control [19]: 71% | kinase still bound, per cent of control [20]: 100% | kinase still bound, per cent of control [21]: 68% | kinase still bound, per cent of control [22]: 98% | kinase still bound, per cent of control [23]: 100% | kinase still bound, per cent of control [24]: 82% | kinase still bound, per cent of control [25]: 67% | kinase still bound, per cent of control [26]: 71% | kinase still bound, per cent of control [27]: 0% | kinase still bound, per cent of control [28]: 100% | kinase still bound, per cent of control [29]: 100% | kinase still bound, per cent of control [30]: 6.2% | kinase still bound, per cent of control [31]: 70% | kinase still bound, per cent of control [32]: 100% | kinase still bound, per cent of control [33]: 100% | kinase still bound, per cent of control [34]: 100% | kinase still bound, per cent of control [35]: 93% | kinase still bound, per cent of control [36]: 82% | kinase still bound, per cent of control [37]: 100% | kinase still bound, per cent of control [38]: 100% | kinase still bound, per cent of control [39]: 100% | kinase still bound, per cent of control [40]: 98% | kinase still bound, per cent of control [41]: 0.95% | kinase still bound, per cent of control [42]: 92% | kinase still bound, per cent of control [43]: 72%

CN(C)C/C=C/C(=O)Nc1cccc(C(=O)Nc2ccc(Nc3nccc(-c4cccnc4)n3)cc2)c1
kinase still bound, per cent of control [1]: 74% | kinase still bound, per cent of control [2]: 70% | kinase still bound, per cent of control [3]: 86% | kinase still bound, per cent of control [4]: 100% | kinase still bound, per cent of control [5]: 100% | kinase still bound, per cent of control [6]: 100% | kinase still bound, per cent of control [7]: 15% | kinase still bound, per cent of control [8]: 100% | kinase still bound, per cent of control [9]: 100% | kinase still bound, per cent of control [10]: 75% | kinase still bound, per cent of control [11]: 7% | kinase still bound, per cent of control [12]: 100% | kinase still bound, per cent of control [13]: 95% | Kd [14]: 34 nM | kinase still bound, per cent of control [14]: 1.7% | kinase still bound, per cent of control [15]: 100% | kinase still bound, per cent of control [16]: 80% | kinase still bound, per cent of control [17]: 52% | kinase still bound, per cent of control [18]: 75% | kinase still bound, per cent of control [19]: 37% | kinase still bound, per cent of control [20]: 89% | kinase still bound, per cent of control [21]: 93% | kinase still bound, per cent of control [22]: 92% | kinase still bound, per cent of control [23]: 56% | kinase still bound, per cent of control [24]: 29% | kinase still bound, per cent of control [25]: 13% | kinase still bound, per cent of control [26]: 37% | kinase still bound, per cent of control [27]: 96% | kinase still bound, per cent of control [28]: 77% | kinase still bound, per cent of control [29]: 2.2% | kinase still bound, per cent of control [30]: 100% | kinase still bound, per cent of control [31]: 28% | kinase still bound, per cent of control [32]: 69% | kinase still bound, per cent of control [33]: 100% | kinase still bound, per cent of control [34]: 100% | kinase still bound, per cent of control [35]: 100% | kinase still bound, per cent of control [36]: 92% | kinase still bound, per cent of control [37]: 100% | kinase still bound, per cent of control [38]: 85% | kinase still bound, per cent of control [39]: 94% | kinase still bound, per cent of control [40]: 74% | kinase still bound, per cent of control [41]: 1% | kinase still bound, per cent of control [42]: 40% | kinase still bound, per cent of control [43]: 86%

Source: the kinase profiling compilation of Christmann-Franck et al. (2016)
